According to US9113629B2, “4-amino-6-(4-substituted-phenyl)-picolinates and 6-amino-2-(4-substituted-phenyl)-pyrimidine-4-carboxylates and their use as herbicides” (DOW AGROSCIENCES LLC, priority 2013, dated 2015):

Columns and labels:
[1] = tested on: MATSS: scented mayweed (Matricaria chamomilla), pineappleweed (Matricaria matricarioides); assay: Post-emergent Test III, herbicidal activity in wheat and barley; type: in vivo
In short: (§1)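 GR20, GR50, GR80 and GR90 come from probit analysis of visual injury scores (0 = none, 100 = complete kill) taken 21 d after treatment. Foliar application was by track sprayer delivering 187 L/ha at five rates, from high down to 1/16×, onto greenhouse plants at the 2–3 leaf stage, with solvent-blank controls.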

[2] = tested on: KCHSC: kochia (Kochia scoparia); assay: as above; type: in vivo
In short: as §1

[3] = tested on: LOLSS: ryegrass including, Italian ryegrass (Lolium multiflorum), rigid ryegrass (Lolium rigidum), annual ryegrass (Lolium multiflorum subsp. Gaudini); assay: as above; type: in vivo; conditions: probit analysis, 21 days after application
In short: as §1

LAMSS = assay: as above; type: in vivo
In short: as §1

[4] = tested on: ALOMY: black-grass (Alopecurus myosuroides); assay: as above; type: in vivo
In short: as §1

[5] = tested on: SETVI: green foxtail (Setaria viridis); assay: as above; type: in vivo
In short: as §1

[6] = tested on: HORSS: barley, including spring and winter (Hordeum vulgare); assay: as above; type: in vivo
In short: as §1

[7] = tested on: APESV: bentgrass (Apera spica-venti); assay: as above; type: in vivo
In short: as §1

[8] = tested on: TRZSS: wheat, including spring and winter (Triticum aestivum); assay: as above; type: in vivo
In short: as §1

[9] = as above; type: in vivo, Lolium multiflorum, Lolium rigidum; conditions: Lolium multiflorum, post-emergence, 504 h, read-out: Visual Growth Reduction (%) 21 Days After Application LOLSS
In short: as §1

[10] = probit analysis, dose for growth reduction of 50 percent, 21 days after application
[11] = probit analysis, dose for growth reduction of 80 percent, 21 days after application
[12] = probit analysis, dose for growth reduction of 20 percent, 21 days after application, crop

COC(=O)c1nc(-c2ccc(I)cc2)c(F)c(N)c1Cl [Compound 118, Methyl 4-amino-6-(4-iodophenyl)-3-chloro-5-fluoropicolinate]
pest or weed control at 35 g/ha ([1]; Matricaria chamomilla, post-emergence, 504 h, 35 g ai/ha, read-out: Visual Growth Reduction (%) 21 Days After Application MATSS): 60 to 74% | pest or weed control at 70 g/ha ([1]; Matricaria chamomilla, post-emergence, 504 h, 70 g ai/ha, read-out: Visual Growth Reduction (%) 21 Days After Application MATSS): 75 to 84% | pest or weed control at 140 g/ha ([1]; Matricaria chamomilla, post-emergence, 504 h, 140 g ai/ha, read-out: Visual Growth Reduction (%) 21 Days After Application MATSS): 85 to 94% | GR50 MATSS [1, 10]: 14 g ai/ha | GR80 MATSS [1, 11]: 60 g ai/ha | pest or weed control at 35 g/ha ([2]; Bassia scoparia, post-emergence, 504 h, 35 g ai/ha, read-out: Visual Growth Reduction (%) 21 Days After Application KCHSC): 85 to 94% | pest or weed control at 70 g/ha ([2]; Bassia scoparia, post-emergence, 504 h, 70 g ai/ha, read-out: Visual Growth Reduction (%) 21 Days After Application KCHSC): 85 to 94% | pest or weed control at 140 g/ha ([2]; Bassia scoparia, post-emergence, 504 h, 140 g ai/ha, read-out: Visual Growth Reduction (%) 21 Days After Application KCHSC): 95 to 100% | GR50 KCHSC [2, 10]: 3 g ai/ha | GR80 KCHSC [2, 11]: 17 g ai/ha | GR50 LOLSS ([3]; dose for growth reduction of 50 percent): 49 g ai/ha | GR80 LOLSS ([3]; dose for growth reduction of 80 percent): 121 g ai/ha | pest or weed control at 35 g/ha (LAMSS; post-emergence, 504 h, 35 g ai/ha, read-out: Visual Growth Reduction (%) 21 Days After Application LAMSS): 95 to 100% | pest or weed control at 70 g/ha (LAMSS; post-emergence, 504 h, 70 g ai/ha, read-out: Visual Growth Reduction (%) 21 Days After Application LAMSS): 95 to 100% | pest or weed control at 140 g/ha (LAMSS; post-emergence, 504 h, 140 g ai/ha, read-out: Visual Growth Reduction (%) 21 Days After Application LAMSS): 95 to 100% | GR50 LAMSS (LAMSS; [10]): 1 g ai/ha | GR80 LAMSS (LAMSS; [11]): 0 g ai/ha | pest or weed control at 35 g/ha ([4]; Alopecurus myosuroides, post-emergence, 504 h, 35 g ai/ha, read-out: Visual Growth Reduction (%) 21 Days After Application ALOMY): 60 to 74% | pest or weed control at 70 g/ha ([4]; Alopecurus myosuroides, post-emergence, 504 h, 70 g ai/ha, read-out: Visual Growth Reduction (%) 21 Days After Application ALOMY): 75 to 84% | pest or weed control at 140 g/ha ([4]; Alopecurus myosuroides, post-emergence, 504 h, 140 g ai/ha, read-out: Visual Growth Reduction (%) 21 Days After Application ALOMY): 85 to 94% | GR50 ALOMY [4, 10]: 25 g ai/ha | GR80 ALOMY [4, 11]: 60 g ai/ha | pest or weed control at 35 g/ha ([5]; Setaria viridis, post-emergence, 504 h, 35 g ai/ha, read-out: Visual Growth Reduction (%) 21 Days After Application SETVI): 0 to 29% | pest or weed control at 70 g/ha ([5]; Setaria viridis, post-emergence, 504 h, 70 g ai/ha, read-out: Visual Growth Reduction (%) 21 Days After Application SETVI): 30 to 44% | pest or weed control at 140 g/ha ([5]; Setaria viridis, post-emergence, 504 h, 140 g ai/ha, read-out: Visual Growth Reduction (%) 21 Days After Application SETVI): 60 to 74% | GR50 SETVI [5, 10]: 91 g ai/ha | GR80 SETVI [5, 11]: 184 g ai/ha | pest or weed control at 35 g/ha ([6]; Hordeum vulgare, post-emergence, 504 h, 35 g ai/ha, read-out: Visual Growth Reduction (%) 21 Days After Application HORSS): 85 to 94% | pest or weed control at 70 g/ha ([6]; Hordeum vulgare, post-emergence, 504 h, 70 g ai/ha, read-out: Visual Growth Reduction (%) 21 Days After Application HORSS): 85 to 94% | pest or weed control at 140 g/ha ([6]; Hordeum vulgare, post-emergence, 504 h, 140 g ai/ha, read-out: Visual Growth Reduction (%) 21 Days After Application HORSS): 85 to 94% | GR20 HORSS [6, 12]: 1 g ai/ha | pest or weed control at 35 g/ha ([7]; Apera spica-venti, post-emergence, 504 h, 35 g ai/ha, read-out: Visual Growth Reduction (%) 21 Days After Application APESV): 60 to 74% | pest or weed control at 70 g/ha ([7]; Apera spica-venti, post-emergence, 504 h, 70 g ai/ha, read-out: Visual Growth Reduction (%) 21 Days After Application APESV): 75 to 84% | pest or weed control at 140 g/ha ([7]; Apera spica-venti, post-emergence, 504 h, 140 g ai/ha, read-out: Visual Growth Reduction (%) 21 Days After Application APESV): 85 to 94% | GR50 APESV [7, 10]: 22 g ai/ha | GR80 APESV [7, 11]: 60 g ai/ha | pest or weed control at 35 g/ha ([8]; Triticum aestivum, post-emergence, 504 h, 35 g ai/ha, read-out: Visual Growth Reduction (%) 21 Days After Application TRZSS): 75 to 84% | pest or weed control at 70 g/ha ([8]; Triticum aestivum, post-emergence, 504 h, 70 g ai/ha, read-out: Visual Growth Reduction (%) 21 Days After Application TRZSS): 85 to 94% | pest or weed control at 140 g/ha ([8]; Triticum aestivum, post-emergence, 504 h, 140 g ai/ha, read-out: Visual Growth Reduction (%) 21 Days After Application TRZSS): 85 to 94% | GR20 TRZSS [8, 12]: 0 g ai/ha | pest or weed control at 35 g/ha ([9]; 35 g ai/ha): 30 to 44% | pest or weed control at 70 g/ha ([9]; 70 g ai/ha): 60 to 74% | pest or weed control at 140 g/ha ([9]; 140 g ai/ha): 75 to 84%
